Experimental data from the supplement of paper PMC7017272.
± gives the standard deviation of the averaged measurements.

Key:
Details in all cases: treatment time: 3 days
UT-SCC-24A [1] = experiment: maximal % inhibition of viability relative to DMSO; higher = stronger effect
Experimental: (§1)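 HNSCC cell lines (500 cells/well, 384-well) were cultured on plastic, on top of (2D) or embedded (3D) in Matrigel or human leiomyoma matrix Myogel (500 ug/mL; Myogel 3D mixed with rat collagen I). Cells were treated for 3 days with 5 ten-fold concentrations of each drug, and viability was read by CellTiter-Glo. Viability was normalised to DMSO (0% inhibition) and 100 uM benzethonium chloride (100% inhibition) controls and fitted with the FIMM DSRT pipeline to give IC50 (nM), maximal % inhibition and the drug sensitivity score (DSS). Suffixes _1/_2/_3 on drug names are replicates.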

UT-SCC-106A [2] = experiment: drug sensitivity score (DSS); higher = more sensitive; extreme values may be limits of the assay
Procedure, shortened: (§2)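 The FIMM pipeline was used to fit percent-inhibition dose–response curves, giving IC50, maximal inhibition and drug sensitivity score. Input data were CellTiter-Glo 2.0 luminescence readings, normalised to vehicle (0.1% DMSO) and cell-killing control wells, from HPV-negative HNSCC cell lines seeded at 500 cells/well in 384-well plates. Cells sat on plastic, on Matrigel or Myogel coatings (500 µg/mL), or within Matrigel or Myogel plus rat collagen I, and received compounds at five 10-fold concentrations for 3 days.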

UT-SCC-14 [3] = experiment: as above
Procedure, shortened: as §2

UT-SCC-24B = experiment: as above
Procedure, shortened: as §2

UT-SCC-28 = experiment: as above
Procedure, shortened: as §2

UT-SCC-40 = experiment: as above
Procedure, shortened: as §2

UT-SCC-42A [4] = experiment: as above
Procedure, shortened: as §2

UT-SCC-42B [5] = experiment: as above
Procedure, shortened: as §2

UT-SCC-44 [6] = experiment: as above
Procedure, shortened: as §2

UT-SCC-73 [7] = experiment: as above
Procedure, shortened: as §2

UT-SCC-81 = experiment: as above
Procedure, shortened: as §2

UT-SCC-8 [8] = experiment: as above
Procedure, shortened: as §2

UT-SCC-106A [9] = experiment: relative IC50 (midpoint of the fitted curve; maximal inhibition may be below 50%); higher = less potent
Procedure, shortened: as §2

UT-SCC-14 [10] = experiment: as above
Procedure, shortened: as §2

UT-SCC-42A [11] = experiment: as above
Procedure, shortened: as §2

UT-SCC-42B [12] = experiment: as above
Procedure, shortened: as §2

UT-SCC-44 [13] = experiment: as above
Procedure, shortened: as §2

UT-SCC-73 [14] = experiment: as above
Procedure, shortened: as §2

UT-SCC-8 [15] = experiment: as above
Procedure, shortened: as §2

UT-SCC-24A [16] = experiment: relative IC50 (midpoint of the fitted curve; maximal inhibition may be below 50%); higher = less potent
Experimental: as §1

[17] = culture condition: embedded in Matrigel
[18] = culture condition: embedded in Myogel + collagen I
[19] = culture condition: on top of Matrigel
[20] = culture condition: on top of Myogel
[21] = culture condition: plastic 2D (no matrix)

## Cc1c(CN2CCN(C(=O)[C@H](C)O)CC2)sc2c(N3CCOCC3)nc(-c3cnc(N)nc3)nc12 [Apitolisib]
UT-SCC-24A [1]; [17]
  maximal % inhibition of viability: 90.3 ± 1.6%
UT-SCC-24A [1]; [18]
  maximal % inhibition of viability: 85.4 ± 2.3%
UT-SCC-24A [1]; [19]
  maximal % inhibition of viability: 87.7 ± 0.2%
UT-SCC-24A [1]; [20]
  maximal % inhibition of viability: 83.4 ± 1.9%
UT-SCC-24A [1]; [21]
  maximal % inhibition of viability: 88.57 ± 0.29%
UT-SCC-106A [2]; [17]
  drug sensitivity score: 11.7 ± 0.66 DSS
UT-SCC-106A [2]; [18]
  drug sensitivity score: 6.97 ± 1 DSS
UT-SCC-106A [2]; [19]
  drug sensitivity score: 10.8 ± 0.35 DSS
UT-SCC-106A [2]; [20]
  drug sensitivity score: 6.23 ± 0.6 DSS
UT-SCC-106A [2]; [21]
  drug sensitivity score: 9.27 ± 1 DSS
UT-SCC-14 [3]; [17]
  drug sensitivity score: 8.77 ± 1.1 DSS
UT-SCC-14 [3]; [18]
  drug sensitivity score: 6.9 ± 1.9 DSS
UT-SCC-14 [3]; [19]
  drug sensitivity score: 7.97 ± 1.6 DSS
UT-SCC-14 [3]; [20]
  drug sensitivity score: 6.43 ± 1.1 DSS
UT-SCC-14 [3]; [21]
  drug sensitivity score: 6.47 ± 1.7 DSS
UT-SCC-24B; [17]
  drug sensitivity score: 10.8 ± 1.8 DSS
UT-SCC-24B; [18]
  drug sensitivity score: 11.8 ± 1.1 DSS
UT-SCC-24B; [19]
  drug sensitivity score: 10.6 ± 0.76 DSS
UT-SCC-24B; [20]
  drug sensitivity score: 9.6 ± 0.2 DSS
UT-SCC-24B; [21]
  drug sensitivity score: 11.1 ± 1 DSS
UT-SCC-28; [17]
  drug sensitivity score: 10.4 ± 1.3 DSS
UT-SCC-28; [18]
  drug sensitivity score: 9 ± 2 DSS
UT-SCC-28; [19]
  drug sensitivity score: 12.4 ± 1.5 DSS
UT-SCC-28; [21]
  drug sensitivity score: 10.8 ± 0.51 DSS
UT-SCC-40; [17]
  drug sensitivity score: 9.4 ± 0.27 DSS
UT-SCC-40; [18]
  drug sensitivity score: 7.23 ± 0.25 DSS
UT-SCC-40; [19]
  drug sensitivity score: 8.07 ± 0.49 DSS
UT-SCC-40; [20]
  drug sensitivity score: 5.3 ± 1.7 DSS
UT-SCC-40; [21]
  drug sensitivity score: 6.33 ± 1.2 DSS
UT-SCC-42A [4]; [17]
  drug sensitivity score: 7.43 ± 0.45 DSS
UT-SCC-42A [4]; [18]
  drug sensitivity score: 8.1 ± 1.3 DSS
UT-SCC-42A [4]; [19]
  drug sensitivity score: 8.03 ± 1.3 DSS
UT-SCC-42A [4]; [20]
  drug sensitivity score: 7.07 ± 0.4 DSS
UT-SCC-42A [4]; [21]
  drug sensitivity score: 8.8 ± 1.1 DSS
UT-SCC-42B [5]; [17]
  drug sensitivity score: 7.13 ± 2.4 DSS
UT-SCC-42B [5]; [19]
  drug sensitivity score: 5.47 ± 0.81 DSS
UT-SCC-42B [5]; [20]
  drug sensitivity score: 4.4 ± 1 DSS
UT-SCC-42B [5]; [21]
  drug sensitivity score: 4.43 ± 0.93 DSS
UT-SCC-44 [6]; [17]
  drug sensitivity score: 9.77 ± 0.86 DSS
UT-SCC-44 [6]; [18]
  drug sensitivity score: 6.17 ± 1.4 DSS
UT-SCC-44 [6]; [19]
  drug sensitivity score: 8.4 ± 0.1 DSS
UT-SCC-44 [6]; [20]
  drug sensitivity score: 8.03 ± 2.9 DSS
UT-SCC-44 [6]; [21]
  drug sensitivity score: 6.67 ± 0.55 DSS
UT-SCC-73 [7]; [17]
  drug sensitivity score: 9 ± 1.2 DSS
UT-SCC-73 [7]; [18]
  drug sensitivity score: 8.2 ± 1.4 DSS
UT-SCC-73 [7]; [19]
  drug sensitivity score: 7.8 ± 0.36 DSS
UT-SCC-73 [7]; [20]
  drug sensitivity score: 7.37 ± 0.15 DSS
UT-SCC-73 [7]; [21]
  drug sensitivity score: 7.23 ± 1.2 DSS
UT-SCC-81; [17]
  drug sensitivity score: 14.9 ± 3 DSS
UT-SCC-81; [18]
  drug sensitivity score: 10.4 ± 0.81 DSS
UT-SCC-81; [19]
  drug sensitivity score: 8.87 ± 0.71 DSS
UT-SCC-81; [20]
  drug sensitivity score: 8.53 ± 1.1 DSS
UT-SCC-81; [21]
  drug sensitivity score: 8.8 ± 1.8 DSS
UT-SCC-8 [8]; [17]
  drug sensitivity score: 9.63 ± 0.38 DSS
UT-SCC-8 [8]; [18]
  drug sensitivity score: 6.2 ± 2.1 DSS
UT-SCC-8 [8]; [19]
  drug sensitivity score: 9.23 ± 0.51 DSS
UT-SCC-8 [8]; [20]
  drug sensitivity score: 9.13 ± 1 DSS
UT-SCC-8 [8]; [21]
  drug sensitivity score: 9.17 ± 0.32 DSS
UT-SCC-106A [9]; [17]
  relative IC50: 336 nM
UT-SCC-106A [9]; [18]
  relative IC50: 862 nM
UT-SCC-106A [9]; [19]
  relative IC50: 488 nM
UT-SCC-106A [9]; [20]
  relative IC50: 1470 nM
UT-SCC-106A [9]; [21]
  relative IC50: 936 nM
UT-SCC-14 [10]; [17]
  relative IC50: 1210 nM
UT-SCC-14 [10]; [18]
  relative IC50: 1810 nM
UT-SCC-14 [10]; [19]
  relative IC50: 1510 nM
UT-SCC-14 [10]; [20]
  relative IC50: 1930 nM
UT-SCC-14 [10]; [21]
  relative IC50: 2000 nM
UT-SCC-42A [11]; [17]
  relative IC50: 1510 nM
UT-SCC-42A [11]; [18]
  relative IC50: 1110 nM
UT-SCC-42A [11]; [19]
  relative IC50: 1320 nM
UT-SCC-42A [11]; [20]
  relative IC50: 1410 nM
UT-SCC-42A [11]; [21]
  relative IC50: 1090 nM
UT-SCC-42B [12]; [17]
  relative IC50: 1900 nM
UT-SCC-42B [12]; [19]
  relative IC50: 2320 nM
UT-SCC-42B [12]; [20]
  relative IC50: 2160 nM
UT-SCC-42B [12]; [21]
  relative IC50: 2390 nM
UT-SCC-44 [13]; [17]
  relative IC50: 279 nM
UT-SCC-44 [13]; [18]
  relative IC50: 1450 nM
UT-SCC-44 [13]; [19]
  relative IC50: 452 nM
UT-SCC-44 [13]; [21]
  relative IC50: 1130 nM
UT-SCC-73 [14]; [17]
  relative IC50: 1110 nM
UT-SCC-73 [14]; [18]
  relative IC50: 1170 nM
UT-SCC-73 [14]; [19]
  relative IC50: 1450 nM
UT-SCC-73 [14]; [20]
  relative IC50: 1540 nM
UT-SCC-73 [14]; [21]
  relative IC50: 1670 nM
UT-SCC-8 [15]; [17]
  relative IC50: 1330 nM
UT-SCC-8 [15]; [18]
  relative IC50: 2370 nM
UT-SCC-8 [15]; [19]
  relative IC50: 1380 nM
UT-SCC-8 [15]; [20]
  relative IC50: 1280 nM
UT-SCC-8 [15]; [21]
  relative IC50: 1410 nM
UT-SCC-24A [16]; [17]
  relative IC50: 577 nM
UT-SCC-24A [16]; [18]
  relative IC50: 436 nM
UT-SCC-24A [16]; [19]
  relative IC50: 483 nM
UT-SCC-24A [16]; [20]
  relative IC50: 818 nM
UT-SCC-24A [16]; [21]
  relative IC50: 416 nM
